Patent US9113629B2, “4-amino-6-(4-substituted-phenyl)-picolinates and 6-amino-2-(4-substituted-phenyl)-pyrimidine-4-carboxylates and their use as herbicides” (DOW AGROSCIENCES LLC, priority 2013, dated 2015)
Where two headings read alike, the source gives them in different places.

Tests used:
[1] = system: Key Grass and Sedge Weeds as well as Grass Crops; assay: Post-emergent Test II herbicidal activity (Table 6); format: in vivo; settings: post-emergence, 336 h; for pest or weed control at 70 g/ha: application rate 70 g ai/ha; for pest or weed control at 140 g/ha: application rate 140 g ai/ha
Outline: (§1)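 Spray rates: a highest rate plus ½×, ¼×, ⅛×, 1/16×, all delivered at 187 L/ha to plants at the first–second true leaf stage. Readout is a visual percent injury score at 14 d, where 100 means complete kill.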

[2] = system: Key Broadleaf Weed and Crop Species; assay: Post-emergent Test II herbicidal activity (Table 5); format: in vivo; settings: post-emergence, 336 h, post-emergent, 14 days after application; for pest or weed control at 70 g/ha: 70 g ai/ha; for pest or weed control at 140 g/ha: 140 g ai/ha
Outline: as §1

[3] = CYPES: yellow nutsedge (Cyperus esculentus), read-out: Visual Growth Reduction (%) 14 Days After Application, CYPES
[4] = DIGSA: crabgrass (Digitaria sanguinalis), read-out: Visual Growth Reduction (%) 14 Days After Application, DIGSA
[5] = ECHCG: barnyardgrass (Echinochloa crus-galli), read-out: Visual Growth Reduction (%) 14 Days After Application, ECHCG
[6] = ORYSA: rice (Oryza sativa), read-out: Visual Growth Reduction (%) 14 Days After Application, ORYSA
[7] = SETFA: giant foxtail (Setaria faberi), read-out: Visual Growth Reduction (%) 14 Days After Application, SETFA
[8] = SORVU: grain sorghum (Sorghum vulgare), read-out: Visual Growth Reduction (%) 14 Days After Application, SORVU
[9] = ZEAMX: maize, corn (Zea mays), read-out: Visual Growth Reduction (%) 14 Days After Application, ZEAMX
[10] = ABUTH: velvetleaf (Abutilon theophrasti), read-out: Visual Growth Reduction (%) 14 Days After Application ABUTH
[11] = AMARE: redroot pigweed (Amaranthus retroflexus), read-out: Visual Growth Reduction (%) 14 Days After Application AMARE
[12] = BRSNN: oilseed-rape, canola (Brassica napus), read-out: Visual Growth Reduction (%) 14 Days After Application BRSNN
[13] = CHEAL: lambsquarters (Chenopodium album), read-out: Visual Growth Reduction (%) 14 Days After Application CHEAL
[14] = EPHHL: wild poinsettia (Euphorbia heterophylla), read-out: Visual Growth Reduction (%) 14 Days After Application EPHHL
[15] = HELAN: sunflower (Helianthus annuus), read-out: Visual Growth Reduction (%) 14 Days After Application HELAN
[16] = VIOTR: wild pansy (Viola tricolor), read-out: Visual Growth Reduction (%) 14 Days After Application VIOTR

C=Cc1c(N)nc(-c2ccc(C#N)cc2F)nc1C(=O)OC [Compound 98, Methyl 6-amino-2-(4-cyano-2-fluorophenyl)-5-vinylpyrimidine-4-carboxylate]
0 to 29%: pest or weed control at 70 g/ha ([1]; Triticum aestivum, TRZSS (wheat), read-out: Visual Growth Reduction (%) 14 Days After Application, TRZSS) | pest or weed control at 70 g/ha [1, 3] | pest or weed control at 140 g/ha [1, 3] | pest or weed control at 70 g/ha [1, 4] | pest or weed control at 140 g/ha [1, 4] | pest or weed control at 70 g/ha [1, 5] | pest or weed control at 140 g/ha [1, 5] | pest or weed control at 70 g/ha [1, 6] | pest or weed control at 140 g/ha [1, 6] | pest or weed control at 70 g/ha [1, 7] | pest or weed control at 140 g/ha [1, 7] | pest or weed control at 70 g/ha [1, 8] | pest or weed control at 140 g/ha [1, 8] | pest or weed control at 140 g/ha ([1]; TRZSS (wheat, Triticum aestivum), read-out: Visual Growth Reduction (%) 14 Days After Application, TRZSS) | pest or weed control at 70 g/ha [1, 9] | pest or weed control at 140 g/ha [1, 9] | pest or weed control at 70 g/ha [2, 10] | pest or weed control at 140 g/ha [2, 10] | pest or weed control at 70 g/ha [2, 11] | pest or weed control at 140 g/ha [2, 11] | pest or weed control at 70 g/ha [2, 12] | pest or weed control at 140 g/ha [2, 12] | pest or weed control at 70 g/ha [2, 13] | pest or weed control at 140 g/ha [2, 13] | pest or weed control at 70 g/ha [2, 14] | pest or weed control at 140 g/ha [2, 14] | pest or weed control at 70 g/ha [2, 15] | pest or weed control at 140 g/ha [2, 15] | pest or weed control at 70 g/ha [2, 16] | pest or weed control at 140 g/ha [2, 16]
